# Test results as given in the NIST ThermoML archive (doi:10.1016/j.jct.2004.04.004).
# ± gives the expanded uncertainty stated by the source.
# Key:
# [1] = 298.15 K; 101.33 kPa; Liquid
# [2] = refractive index (Na D-line) (dimensionless); details: 293.15 K; 101.33 kPa; Liquid; Standard Abbe refractometry
SMILES,mass density [1] [kg/m3],refractive index [2]
"Cc1ccc(C)cc1 [1,4-dimethylbenzene]",856.58 ± 0.63,1.49577 ± 0.00075
C[S+](C)[O-] [dimethyl sulfoxide],1095.62 ± 0.39,1.4785 ± 0.0007
"Cc1cccc(C)c1 [1,3-dimethylbenzene]",859.83 ± 0.99,1.4973 ± 0.0008
"Cc1ccccc1C [1,2-dimethylbenzene]",875.73 ± 0.44,1.5057 ± 0.0007
